From ChEMBL document CHEMBL1201862, “PubChem BioAssay data set” (2004)
Calls of active or inactive are those of the source.

Key:
[1] = target: Cytochrome P450 2D6 (Homo sapiens, UniProt P10635);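 note: CYP2D6 member of a cytochrome P450 panel assay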
[2] = target: Cytochrome P450 2C19 (Homo sapiens, UniProt P33261); test: Cytochrome panel assay with activity outcomes. Panel member name: p450-cyp2c19 Compounds with AC50 equal or less than 10 uM are considered active; type: functional; settings: read-out: AC50
[3] = target: T1, Cytochrome P450 1A2 (Homo sapiens, UniProt P05177);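 note: PubChem cytochrome P450 panel assay, CYP1A2 panel member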
T1 sequence (P05177 whole entry): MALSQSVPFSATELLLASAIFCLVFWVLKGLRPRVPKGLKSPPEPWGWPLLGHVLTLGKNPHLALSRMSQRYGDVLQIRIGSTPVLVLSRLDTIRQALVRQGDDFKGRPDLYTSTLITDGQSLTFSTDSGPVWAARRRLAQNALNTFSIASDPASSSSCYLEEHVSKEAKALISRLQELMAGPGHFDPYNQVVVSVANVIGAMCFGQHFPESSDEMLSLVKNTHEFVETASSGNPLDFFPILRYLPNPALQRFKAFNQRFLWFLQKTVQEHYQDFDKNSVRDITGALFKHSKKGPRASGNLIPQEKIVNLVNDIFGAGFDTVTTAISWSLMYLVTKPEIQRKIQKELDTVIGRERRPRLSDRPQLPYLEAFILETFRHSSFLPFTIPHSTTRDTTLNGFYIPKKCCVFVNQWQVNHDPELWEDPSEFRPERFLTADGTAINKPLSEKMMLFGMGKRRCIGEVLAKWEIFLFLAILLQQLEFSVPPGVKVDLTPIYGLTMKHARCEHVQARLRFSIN

[4] = target: T2, Heat shock factor protein 1 (Mus musculus, UniProt P38532); test: enhancement of HSF1-driven luciferase signal – cell-based, NIH3T3, luminescence, dose retest, confirmation (AID 435004); type: functional;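 note: stress induced by proteasome inhibitor MG132 added 30 min after compound; luciferase reporter driven by HSF1 response element in NIH3T3 cells; actives raise luminescence as potentiators of the MG132 stress response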
T2 sequence (P38532 whole entry): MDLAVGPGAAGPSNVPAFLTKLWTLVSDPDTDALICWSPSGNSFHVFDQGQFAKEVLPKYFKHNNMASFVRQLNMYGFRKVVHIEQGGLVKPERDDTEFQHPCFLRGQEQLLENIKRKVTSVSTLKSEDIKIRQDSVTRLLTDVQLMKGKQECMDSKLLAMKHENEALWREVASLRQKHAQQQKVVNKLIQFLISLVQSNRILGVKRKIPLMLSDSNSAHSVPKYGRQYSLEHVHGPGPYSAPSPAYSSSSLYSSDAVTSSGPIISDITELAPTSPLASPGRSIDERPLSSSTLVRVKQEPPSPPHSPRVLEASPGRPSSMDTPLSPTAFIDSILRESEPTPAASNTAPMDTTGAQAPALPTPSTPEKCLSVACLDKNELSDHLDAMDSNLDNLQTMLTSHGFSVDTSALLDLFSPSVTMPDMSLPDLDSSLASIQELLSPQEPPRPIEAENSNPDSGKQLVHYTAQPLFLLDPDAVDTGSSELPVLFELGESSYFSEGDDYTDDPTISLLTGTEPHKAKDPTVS

[5] = cells; type: functional
[6] = target: FAD-linked sulfhydryl oxidase ALR (Homo sapiens, UniProt P55789); test: ALR-catalysed DTT oxidation blockers – biochemical, H2O2 detection, luminescence, cherry-pick, dose response (AID 493248)
[7] = Luminescence Cell-Based Dose Retest to Confirm Inhibitors of Cancer Stem Cells. [Related pubchem assays (depositor defined):AID2717, AID2721]; type: functional; settings: Homo sapiens
[8] = NIH3T3 cell viability loss – ATP luminescence, mouse fibroblasts, counter-screen, dose response (AID 2010); type: functional, cell-based;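 note: cells exposed to compound for about 90 hours before reading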
[9] = Trypanosoma cruzi growth suppression in host cells – NIH3T3 host cells, beta-gal luminescence, confirmation (AID 2044); type: functional, cell-based;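 note: intracellular parasites grown in NIH/3T3 mouse fibroblasts as host cells; luminescent beta-galactosidase reporter signal from transgenic T. cruzi replicating inside host cells; inhibitors lower the luminescence signal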
[10] = target: T3, Streptokinase A (Streptococcus pyogenes serotype M1, UniProt P10520); test: viability-normalized secreted streptokinase activity reduction – plasminogen activation absorbance, OD405, dose response (AID 1914); type: functional, Streptococcus pyogenes M1 GAS;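 note: secreted streptokinase activity via plasminogen activation per viability signal from cell pellet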
T3 sequence (P10520 whole entry): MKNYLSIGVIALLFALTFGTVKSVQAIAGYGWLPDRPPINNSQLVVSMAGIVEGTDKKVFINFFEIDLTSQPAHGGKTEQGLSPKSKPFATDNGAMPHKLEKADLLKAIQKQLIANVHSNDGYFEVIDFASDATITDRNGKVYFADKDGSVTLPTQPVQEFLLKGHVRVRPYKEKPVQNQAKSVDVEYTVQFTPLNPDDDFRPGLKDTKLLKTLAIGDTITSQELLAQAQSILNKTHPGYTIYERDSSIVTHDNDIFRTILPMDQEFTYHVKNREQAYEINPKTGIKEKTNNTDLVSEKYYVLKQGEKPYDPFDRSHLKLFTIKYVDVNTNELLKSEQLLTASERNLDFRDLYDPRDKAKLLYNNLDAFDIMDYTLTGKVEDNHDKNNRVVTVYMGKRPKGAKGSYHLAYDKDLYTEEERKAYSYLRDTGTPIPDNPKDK

[11] = test system: Streptococcus sp. 'group A'; test: Streptococcus pyogenes SK(-)GAS viability under kanamycin – luminescence, BacTiterGlo, confirmation, counter-screen for streptokinase expression inhibitor project, dose response (AID 1900); type: functional, organism-based
[12] = test system: Streptococcus; test: GAS UMAA2166 growth inhibition – luminescence, BacTiterGlo, counter-screen for streptokinase expression inhibitor project, dose response (AID 1915); type: functional, organism-based;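 note: potency for reduction of bacterial viability or growth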

Chain of Cytochrome P450 2D6 (P10635 whole entry): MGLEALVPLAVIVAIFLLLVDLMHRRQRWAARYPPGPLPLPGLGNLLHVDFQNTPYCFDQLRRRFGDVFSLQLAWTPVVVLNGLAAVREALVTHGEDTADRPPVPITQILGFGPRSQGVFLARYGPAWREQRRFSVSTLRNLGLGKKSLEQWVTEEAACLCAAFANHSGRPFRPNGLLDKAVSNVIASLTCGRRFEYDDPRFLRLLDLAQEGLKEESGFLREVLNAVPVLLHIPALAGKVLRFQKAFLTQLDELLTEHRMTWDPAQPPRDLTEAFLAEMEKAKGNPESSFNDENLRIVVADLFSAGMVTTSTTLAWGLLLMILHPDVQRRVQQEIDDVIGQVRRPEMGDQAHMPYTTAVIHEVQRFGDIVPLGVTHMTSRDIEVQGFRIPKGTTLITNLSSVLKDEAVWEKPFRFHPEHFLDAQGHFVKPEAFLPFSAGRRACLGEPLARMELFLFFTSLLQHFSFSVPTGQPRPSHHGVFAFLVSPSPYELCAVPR
Chain of FAD-linked sulfhydryl oxidase ALR (P55789 whole entry): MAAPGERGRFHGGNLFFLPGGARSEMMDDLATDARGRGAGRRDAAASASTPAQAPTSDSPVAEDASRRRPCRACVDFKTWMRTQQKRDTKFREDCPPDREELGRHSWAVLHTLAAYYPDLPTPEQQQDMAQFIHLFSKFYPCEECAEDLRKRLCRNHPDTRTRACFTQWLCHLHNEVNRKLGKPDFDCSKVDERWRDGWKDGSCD
Chain of Cytochrome P450 2C19 (P33261 whole entry): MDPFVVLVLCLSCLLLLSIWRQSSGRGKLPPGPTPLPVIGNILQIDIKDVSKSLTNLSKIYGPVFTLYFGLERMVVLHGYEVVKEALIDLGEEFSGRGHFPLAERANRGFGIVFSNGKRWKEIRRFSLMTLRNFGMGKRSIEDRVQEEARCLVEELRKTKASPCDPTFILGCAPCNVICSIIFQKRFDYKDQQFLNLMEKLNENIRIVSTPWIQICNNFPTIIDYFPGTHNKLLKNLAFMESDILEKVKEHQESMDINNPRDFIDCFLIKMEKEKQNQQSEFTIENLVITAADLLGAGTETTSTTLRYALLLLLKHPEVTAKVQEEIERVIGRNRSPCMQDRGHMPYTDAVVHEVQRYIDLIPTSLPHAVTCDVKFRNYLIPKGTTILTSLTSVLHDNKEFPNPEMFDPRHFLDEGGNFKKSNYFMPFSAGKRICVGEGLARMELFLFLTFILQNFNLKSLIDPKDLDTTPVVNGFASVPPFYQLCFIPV

COc1cccc(Cn2c(=O)c(CCc3ccccc3)nc3cnc(N4CCN(C)CC4)nc32)c1
AC50 [1]: 20 µM (inconclusive)

CN(C)c1ncc2nc(-c3ccc(F)cc3)c(=O)n(C[C@H]3CCCO3)c2n1
AC50 [1]: 1.26 µM (inconclusive)

CN(C)C(=O)c1ccc(-c2nccc(N(C)Cc3ccco3)n2)cc1
AC50 [2]: 25.1 µM (inconclusive)
AC50 [1]: 25.1 µM (inconclusive)

N#Cc1ccc(CN2CC[C@@]3(CCCN(C(=O)Oc4ccccc4)C3)C2)cc1
AC50 [3]: 12.6 µM (inconclusive)

COC(CNC(=O)C1CCCN(S(=O)(=O)c2c(C)noc2/C=C/c2cccs2)C1)OC (stereo not given)
EC50 [4]: 110 µM (active)

O=C(Nc1cccc(NC(=O)c2ccccc2[N+](=O)[O-])n1)c1ccccc1[N+](=O)[O-]
AC50 [1]: 20 µM (inconclusive)

CCOCCOC(=O)COc1ccc2c(-c3ccccc3)cc(=O)oc2c1
IC50 [5]: 1.77 µM (active)

CCOC(=O)COc1ccc2c3c(c(=O)oc2c1C)CCC3
IC50 [5]: > 50 µM (active)

COc1ccc(OCc2nnnn2-c2ccccc2)cc1
EC50 [4]: > 260 µM (inactive)

CCc1nnc(N/N=C/c2ccc(N3CCC(C)CC3)c([N+](=O)[O-])c2)n1N
IC50 [5]: 20 µM (active)

C=CC[C@@H]1C=C[C@H](O/N=C(\C)CCN2CCCc3nc(C)c(C)cc32)[C@H](CO)O1
AC50 [1]: 3.16 µM (inconclusive)

C=CCn1c(Cc2c[nH]c3ccccc23)nnc1SCC(=O)NCc1ccccc1
AC50 [3]: 12.6 µM (inconclusive)

CC1CCCCN1C(=O)COc1ccccc1F (stereo not given)
EC50 [4]: > 260 µM (inactive)

Cc1c(C)c(C)c(C(=O)c2ccc(NC(=O)c3ccccc3C(=O)O)cc2)c(C)c1C
AC50 [6]: 5.32 µM (active)

Cc1nn(C(C)C(=O)Nc2ccc(Cl)cn2)c(C)c1[N+](=O)[O-] (stereo not given)
AC50 [3]: 12.6 µM (inconclusive)

Cc1cc(C)c(S(=O)(=O)Nc2cccc(/C=C/C(=O)O)c2)c(C)c1
EC50 [4]: > 260 µM (inactive)

COc1ccc(N(CC(=O)Nc2cc(C)ccc2C)S(=O)(=O)c2c(C)noc2C)cc1
AC50 [7]: 34.5 µM (active)

COc1c(OC(C)=O)ccc(/C=C/c2ccc3cccc(OCc4ccccc4)c3n2)c1[N+](=O)[O-]
AC50 [7]: 1.67 µM (active)

C(=C/c1ccccc1)/CN1CCN(CCOC(c2ccccc2)c2ccccc2)CC1
AC50 [3]: 20 µM (inconclusive)

CCOC(=O)C1CCN(c2ncnc3c2c(-c2ccccc2)cn3-c2ccccc2)CC1
AC50 [7]: 3.11 µM (active)
EC50 [8]: > 60 µM (not active)
EC50 [9]: 2.23 µM (active)

Nc1n[nH]c(N2CCN(c3cccc(Cl)c3)CC2)n1
AC50 [6]: 1.25 µM (active)

Cc1cc(C)nc(NNC(=O)c2ccccc2O)n1
AC50 [6]: 5.66 µM (active)

Fc1cccc(-n2c(-c3cccs3)nc3nc4ccccc4nc32)c1
AC50 [7]: 1.69 µM (active)

CC(=O)c1ccc(-c2ccc([C@H]3[C@@H]4C=CCC[C@@]4(C)C(=O)N3Cc3ccccc3)c(F)c2)cc1
AC50 [7]: 4.4 µM (active)

CC(C)(C)OC(=O)[C@H](Cc1ccccc1)NC(=O)c1[nH]cnc1C(=O)Nc1cccc(Cl)c1
EC50 [10]: 38.3 µM (active)
AC50 [7]: 3.36 µM (active)
EC50 [11]: 3.64 µM (active)
EC50 [12]: 21.7 µM (active)

CN=C(S)N(Cc1ccc(Cl)cc1)Cc1cccs1
EC50 [4]: > 260 µM (inactive)

N#C/C(=C\c1ccc(Cl)cc1)c1nc2ccccc2o1
EC50 [4]: > 260 µM (inactive)

Nc1nnc(SCC(=O)Nc2cccc3ccccc23)s1
EC50 [4]: > 260 µM (inactive)

CCOC(=O)NC(=O)/C(C#N)=N/Nc1c(F)cccc1F
EC50 [4]: > 260 µM (inactive)
